Experimental data reported in patent US20140065103A1 (VERTEX PHARMACEUTICALS INCORPORATED, priority 2010, published 2014).
Where two headings read alike, the source gives them in different places.

Columns and labels:
[1] = system: Huh-7 ET, Molt-4, DU-145, Hep-G2 and SH-SY5Y cells; assay: [3H]Thymidine incorporation assay (cytotoxicity, CC50); settings: [3H]thymidine incorporation; cell line not given
[2] = system: HCV sub-genomic replicon of genotype 1a in replicon cell line W11.8; assay: microbe, parasite or virus in culture; format: cell-based, Hepatitis C virus; settings: read-out: HCV-Replicon-ELISA-1a IC50
[3] = system: HCV replicon (genotype 1b) in Huh7 hepatoma cell line ET; assay: microbe, parasite or virus in culture; format: cell-based, Hepatitis C virus; settings: read-out: HCV-Replicon-1b_IC50
[4] = [3H]Thymidine incorporation assay (cytotoxicity, CC50); settings: human

| Compound | CC50 [1] | IC50 [2] | IC50 [3] | IC50 ([3]; Hepatitis C virus, Huh-7, 96 h) | CC50 at 72 h [4] |
| --- | --- | --- | --- | --- | --- |
| CC(C)(C)C#Cc1cc(N(C(=O)[C@H]2CC[C@H](C)CC2)[C@H]2CC[C@H](OC3CC3)CC2)c(C(=O)O)s1 [Compound 38, 5-(3,3-Dimethylbut-1-yn-1-yl)-3-((N-4-trans-cyclopropoxycyclohexyl)-4-trans-methylcyclohexanecarboxamido)thiophene-2-carboxylic acid] | 10000 to 100000 nM | 100 to 1000 nM | < 100 nM |  |  |
| Methyl-5-(3,3-dimethylbut-1-yn-1-yl)-3-(trans-4-methyl-N-(cis-3-((dimethylamino)methyl)cyclobutyl)cyclohexanecarboxamido)thiophene-2 carboxylate [Compound 65] | 10000 to 100000 nM | < 100 nM | < 100 nM |  |  |
| Cc1ccc(C(=O)N(c2cc(C#CC(C)(C)C)sc2C(=O)O)[C@H]2CC[C@H](O)CC2)c(C)c1 [Compound 83, 3-[(2,4-Dimethyl-benzoyl)-(trans-4-hydroxy-cyclohexyl)-amino]-5-(3,3-dimethyl-but-1-ynyl)-thiophene-2-carboxylic acid] |  |  |  | 100 to 1000 nM |  |
| Cc1ccc(C(=O)N(c2cc(C#CC(C)(C)C)sc2C(=O)O)[C@H]2CC[C@H](O)CC2)cc1F [Compound 93, 5-(3,3-Dimethyl-but-1-ynyl)-3-[(3-fluoro-4-methyl-benzoyl)-(trans-4-hydroxy-cyclohexyl)-amino]thiophene-2-carboxylic acid] |  |  |  | 100 to 1000 nM |  |
| CC(C)(C)C#Cc1cc(N(C(=O)c2ccc(Cl)cc2F)[C@H]2CC[C@H](O)CC2)c(C(=O)O)s1 [Compound 91, 3-[(4-Chloro-2-fluoro-benzoyl)-(trans-4-hydroxy-cyclohexyl)-amino]-5-(3,3-dimethyl-but-1-ynyl)-thiophene-2-carboxylic acid] |  |  |  | 100 to 1000 nM | 10000 to 100000 nM |
| CC(=O)N1CC[C@@H](N(c2cc(C#CC(C)(C)C)sc2C(=O)O)C(=O)[C@H]2CC[C@H](C)CC2)C1 (stereo in doubt) [Compound 60, 3-(N—((R)-1-Acetylpyrrolidin-3-yl)-4-trans-methylcyclohexane-carboxamido)-5-(3,3-dimethylbut-1-yn-1-yl)thiophene-2-carboxylic acid] | > 100000 nM | 100 to 1000 nM |  |  |  |
| CC[C@@H](C(=O)O)N(c1cc(C#CC(C)(C)C)sc1C(=O)O)C(=O)[C@H]1CC[C@H](C)CC1 (relative stereo) [Compound 41, 3-(N—((S)-1-carboxypropyl)-(4-trans-methylcyclohexane)-carboxamido)-5-(3,3-dimethylbut-1-yn-1-yl)thiophene-2-carboxylic acid] | > 100000 nM | < 100 nM |  |  |  |
| CCO[C@H]1CC[C@H](N(c2cc(C#CC(C)(C)C)sc2C(=O)O)C(=O)[C@H]2CC[C@H](C)CC2)CC1 [Compound 35, 5-(3,3-Dimethylbut-1-yn-1-yl)-3-((N-4-trans-ethoxycyclohexyl)-4-trans-methylcyclohexanecarboxamido)thiophene-2-carboxylic acid] | 10000 to 100000 nM | 100 to 1000 nM | < 100 nM |  |  |
| CC(C)C#Cc1cc(N(C(=O)[C@H]2CC[C@H](C)CC2)C2CCN(C(=O)CCCCCN)CC2)c(C(=O)O)s1 [Compound 95, 3-((trans-4-Methylcyclohexanecarbonyl)-(1-(6-amino-hexanoyl)-piperidin-4-yl)amino)-5-(3-methylbut-1-ynyl)thiophene-2-carboxylic acid] |  |  |  | 100 to 1000 nM | 10000 to 100000 nM |
| CC(Cn1cccn1)N(c1cc(C#CC(C)(C)C)sc1C(=O)O)C(=O)[C@H]1CC[C@H](C)CC1 (stereo partly drawn) [Compound 80, 5-(3,3-Dimethylbut-1-ynyl)-3-[(4-trans-methylcyclohexanecarbonyl)-(1-methyl-2-pyrazol-1-yl-ethyl)amino]thiophene-2-carboxylic acid] | 10000 to 100000 nM | < 100 nM |  |  |  |
| CC(CN(c1cc(C#CC(C)(C)C)sc1C(=O)O)C(=O)[C@H]1CC[C@H](C)CC1)n1cccn1 (stereo partly drawn) [Compound 73, 5-(3,3-Dimethylbut-1-ynyl)-3-[(4-trans-methylcyclohexanecarbonyl)-(2-pyrazol-1-ylpropyl)amino]thiophene-2-carboxylic acid] | 10000 to 100000 nM | < 100 nM |  |  |  |
| CC(C)C#Cc1cc(N(C(=O)[C@H]2CC[C@H](C)CC2)[C@H]2CC[C@H](O)CC2)c(C(=O)O)s1 [Compound 4, 5-(3-methylbut-1-ynyl)-3-[(4-trans-hydroxycyclohexyl)-(4-trans-methylcyclohexanecarbonyl)amino]thiophene-2-carboxylic acid] | 10000 to 100000 nM | < 100 nM | < 100 nM |  |  |
